{"source": "paper PMC12408367", "about": "(2025)", "key": {"[1]": {"tested_on": "wild-type (WT) 5′UTR of KDM5C mRNA (RNA, mRNA element) UGGCGAAGGCUGCGGUACGACGGCCACACGCC", "assay": "microscale thermophoresis (Monolith NT.115)", "conditions": "DEPC water; RNA stock 40 nM; 1 mM putrescine stock, 16-step 1:2 dilution; 4PL sigmoidal fit"}, "[2]": {"tested_on": "mutant (mut) 5′UTR of KDM5C mRNA (RNA, mRNA element) UGGCGUGGGCUGCGGUACGACGGCCACACGCC", "assay": "microscale thermophoresis (Monolith NT.115)", "conditions": "DEPC water; RNA stock 40 nM; 1 mM putrescine stock (highest), 16-step 1:2 dilution"}}, "data": [{"smiles": "NCCCCN", "values": [{"measurement": "Kd", "setting": "[1]", "result": 52.3, "unit": "µM"}, {"measurement": "binding", "setting": "[2]", "result": "no"}]}]}
